Test results from PMC6382696, “Drug Repurposing: The Anthelmintics Niclosamide and Nitazoxanide Are Potent TMEM16A Antagonists That Fully Bronchodilate Airways” (Frontiers in Pharmacology, 2019).
Where two headings read alike, the source gives them in different places.

Key:
mouse tracheal rings = experiment: Wire myograph bronchodilation of carbachol pre-contracted mouse tracheal rings; settings: for EC50: Mus musculus; for time to steady-state relaxation of mouse tracheal rings: EC75 carbachol; for onset of action: bronchodilating mouse airways, summary
Description: The trachea from C57 BL/6 mice was dissected and collected in PBS with Mg^2+ and Ca^2+. After further trimming, two 2 mm sections (rings) per trachea were then placed in DMEM media containing PSG/HEPES/AA/NaPyr for 1 h and used immediately or maintained overnight at 37°C in a humidified incubator with 5% CO2. Rings were then mounted into chambers of DMT wire myograph containing L-shaped mounting pins with 2–3 mN of force applied to secure rings on the pins and the rings were allowed to equilibrate for 25–30 min in a physiological saline buffer (PSS, 130 mM NaCl, 4.7 mM KCl, 1.2 mM MgS04, 14.9 mM NaHCO3, 1.2 mM KH2PO4, 0.026 mM EDTA, 1.6 mM CaCl2, 5.5 mM Dextrose). Throughout the experiment, rings were maintained at physiological temperature and gas conditions by heating buffer reservoir and chamber to 37°C and bubbling a 95% O2, 5% CO2 gas mixture into chamber.
After equilibration, a standard tissue “Wake-Up” procedure was applied by altering tension and then treatment with elevated potassium as follows: 3 mN tension was applied for 5–10 min, then another 2–3 mN tension to total of 5.5 mN and then to 7–8 mN for another 5 min; the tissue pre-tension was then set to 5 mN and allowed to equilibrate for 5–10 min followed by the removal of the PSS buffer and addition of KPSS (60 mM KCl, 74.7 mM NaCl in PSS solution), with force changes monitored until they reached a plateau. The tissue was then washed four times with PSS over 5 min and the KPSS treatment and washes repeated; the tissue was then allowed to sit in PSS for 10 min and the tension was set to 5 mN.
The tissue was then washed three times and then three times more with PSS for 5 min until tension returned to baseline.
Only tissue that passed the qualification tests above advanced to studies on test article compounds. […] For standard ascending dose-response studies on TMEM16A antagonists, an EC75 or EC95 concentration of CCh was used to pre-contract tracheal rings.

TMEM16A (acd) = target: T1, TMEM16A (acd) (Homo sapiens, UniProt Q5XXA6); experiment: QPatch whole-cell electrophysiology, HEK293 TMEM16A (acd); assay type: cell-based; settings: for IC50 / calcium-activated chloride current inhibited: QPatch; for IC50: outward current at +100 mV, 170 nM free intracellular calcium, ~60 s per concentration, read-out: TMEM16A Chloride Current (IC50); for effect on inward current at −100 mV, whole cell patch clamp: 170 nM free calcium, Vhold 0 mV; for calcium-activated chloride current inhibited: maximum antagonist activity; for time to achieve steady state block: single concentration
T1 sequence (Q5XXA6 1-986): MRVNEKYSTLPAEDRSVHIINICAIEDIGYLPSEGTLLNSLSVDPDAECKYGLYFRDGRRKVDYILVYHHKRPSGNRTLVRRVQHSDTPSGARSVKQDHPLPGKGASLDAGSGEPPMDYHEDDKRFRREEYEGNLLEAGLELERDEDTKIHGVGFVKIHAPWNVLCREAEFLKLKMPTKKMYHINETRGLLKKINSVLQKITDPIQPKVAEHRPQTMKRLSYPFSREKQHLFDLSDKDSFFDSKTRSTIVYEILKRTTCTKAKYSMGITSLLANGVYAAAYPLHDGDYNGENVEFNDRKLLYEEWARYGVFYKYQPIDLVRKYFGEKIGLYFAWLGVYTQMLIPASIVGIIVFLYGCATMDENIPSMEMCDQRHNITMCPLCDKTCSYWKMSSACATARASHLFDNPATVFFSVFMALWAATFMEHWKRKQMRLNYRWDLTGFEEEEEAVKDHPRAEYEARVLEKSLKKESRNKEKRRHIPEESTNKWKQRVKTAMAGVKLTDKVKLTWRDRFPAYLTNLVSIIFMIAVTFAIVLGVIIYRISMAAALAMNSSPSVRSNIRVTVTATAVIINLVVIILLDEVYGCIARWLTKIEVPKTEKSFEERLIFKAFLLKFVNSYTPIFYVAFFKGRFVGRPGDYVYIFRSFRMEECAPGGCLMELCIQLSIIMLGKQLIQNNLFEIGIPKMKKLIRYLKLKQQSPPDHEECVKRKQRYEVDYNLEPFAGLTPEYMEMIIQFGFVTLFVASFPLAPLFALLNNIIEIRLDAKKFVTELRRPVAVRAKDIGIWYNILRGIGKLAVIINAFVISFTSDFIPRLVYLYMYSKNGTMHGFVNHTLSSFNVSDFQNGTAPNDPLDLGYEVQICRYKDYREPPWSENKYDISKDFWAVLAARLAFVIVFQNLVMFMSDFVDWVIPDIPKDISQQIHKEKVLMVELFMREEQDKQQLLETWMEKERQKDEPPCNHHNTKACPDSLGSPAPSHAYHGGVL
From the text: HEK293 cells stably expressing the TMEM16A (acd) variant were purchased from SB Drug Discovery. The HEK293 TMEM16A (abc) stable cell line was from ChanTest and COLO-205 cells were purchased from ATCC. The same standard buffers and recording conditions listed below were used for QPatch studies on all three cell lines.
Recording Solutions: were made weekly as below and stored at room temperature until used. It is recommended not to add ATP to internal solution until immediately before using on the QPatch. The external buffer (in mM) was 140 NaCl, 4 KCl, 2 CaCl2, 1 MgCl2, 10 HEPES, 10 Glucose, pH7.4, while the internal buffer (in mM) was 110 CsCl, 20 TEA-Cl, 5.374 CaCl2, 1.75 MgCl2, 10 EGTA, 10 HEPES, 4 Na2ATP, pH 7.2.
Once established in whole-cell configuration, cells were clamped to a holding potential (Vhold) of 0 mV on 48 well single hole patch plate. A standardized IV protocol was used to elicit ionic current through the TMEM16A chloride channel at 20 s intervals. Steady-state voltage pulses were from −100 mV to +100 mV in +20 mV steps for a duration of 500 ms. After each pulse the voltage was returned to −100 mV for 50 ms to obtain tail currents, and then returned to the holding potential of 0 mV until the beginning of the next sweep. […] This ensures a minimum of 60 s per concentration incubation before measuring current block. Currents were acquired at 10 kHz and filtered at 2 kHz, leak subtraction and Rseries were disabled. A 1 MΩ minimum resistance was set because cells are held in an open channel state and therefore resistance is low.
A cumulative concentration response was measured where each cell is exposed to five concentrations of test article with a dilution factor of 1:5 (e.g., 0.048, 0.24, 1.2, 6, and 30 μM). Cells were recorded for ∼60 s per solution/compound addition. Initially, external solution is applied twice to allow currents to stabilize. Then vehicle (from the saline reservoir) is added twice to monitor any effect 0.3% DMSO might have on currents. This leads directly into the concentration runs by applying Concentration 1 (single addition) for 1 min. Concentration 2 is then applied for the subsequent minute, etc. Recovery/washout was monitored for a final minute with a final external solution addition.
[…] […] Each cell’s current magnitude was then normalized to itself at the initial 0.3% vehicle control period prior to compound application. This step is to account for differences in current size for each cell. Normalized responses to test article were plotted against their concentrations to reveal a concentration-inhibition plot.
A Normalized Group Hill fit was then performed on the plotted results to yield a pooled IC50 value, reconstructed from a minimum of two cells/concentration. The baseline response as well as the full response were constrained to 1 and 0, respectively.

[1] = carbachol pre-contracted, values marked † (footnote not given), read-out: Bronchodilation of Mouse Tracheal Rings (EC50)
[2] = carbachol pre-contracted, values marked § (footnote not given), read-out: Bronchodilation of Mouse Tracheal Rings (EC50)
[3] = pre-contracted with EC75 carbachol, average, read-out: EC50 relaxation of mouse tracheal rings

Structure (SMILES)	EC50 (mouse tracheal rings; [1]) [nM]	IC50 (TMEM16A (acd)) [nM]	effect on inward current at −100 mV, whole cell patch clamp (TMEM16A (acd))	other results
Oc1ccc(Cl)cc1Cc1cc(Cl)ccc1O [Dichlorophen]	2010	4660 ± 2200		
O=C(Nc1ncc([N+](=O)[O-])s1)c1ccccc1O [Tizoxanide]	3900	4420 ± 2400		
O=C(Nc1ncc([N+](=O)[O-])s1)c1cccs1 [NTTP]		4690		EC50 (mouse tracheal rings; [2]): 7610 nM
O=C(Nc1ccc(Cl)cc1)c1cc(Cl)ccc1O [Cpd 5]	1120	2260 ± 650		
N#Cc1c(C(F)(F)F)cc(O)n2c1nc1ccccc12 [1PBC]	1770	2810 ± 1250	paradoxical increase	calcium-activated chloride current inhibited (TMEM16A (acd)): Over 80%
CCc1c(C)nc(SCC(=O)Nc2nc(-c3ccc(OC)cc3)cs2)[nH]c1=O [T16Ainh-A01]	> 50000	> 30000		
O=C(Nc1ccc([N+](=O)[O-])cc1Cl)c1cc(Cl)ccc1O [Niclosamide]	379 ± 82	2370 ± 2110	paradoxical increase	time to steady-state relaxation of mouse tracheal rings (mouse tracheal rings; 1 μM): 17 to 35 min; EC50 (mouse tracheal rings; [3]): 365 nM; onset of action (mouse tracheal rings): 17 to 60 min; time to achieve steady state block (TMEM16A (acd); 1.11 μM): about 10 min; time to achieve steady state block (TMEM16A (acd); 3.3 μM): approximately 4 min; calcium-activated chloride current inhibited (TMEM16A (acd)): Over 80%
O=C(O)c1cccnc1Nc1cccc(C(F)(F)F)c1 [Niflumic Acid]	51200	8540 ± 6750	stimulating	
COc1cc([N+](=O)[O-])ccc1NC(=O)c1cc(Cl)c2ccccc2c1O [Cpd 4]	467 ± 167	620 ± 370	no significant effect	time to steady-state relaxation of mouse tracheal rings (mouse tracheal rings; 316 nM): 25 to 45 min; EC50 (mouse tracheal rings; [3]): ~332 nM; onset of action (mouse tracheal rings): 17 to 60 min
O=C(Nc1ccc([N+](=O)[O-])cc1)c1cc(Cl)c2ccccc2c1O [Cpd 3]		610 ± 620	no significant effect	EC50 (mouse tracheal rings; [2]): 606 ± 3 nM
COc1cc(Nc2ccc([N+](=O)[O-])cc2C(=O)O)cc2ccccc12 [MONNA]	3020	13600 ± 9760	inhibited	
O=C(Nc1ccc([N+](=O)[O-])cc1)c1cc(Cl)ccc1O [Cpd 2]	483			EC50 (mouse tracheal rings; [2]): 585 nM
CC(C)(C)C1CCc2c(sc(NC(=O)c3ccco3)c2C(=O)O)C1 (centres unmarked) [CaCCinh-A01]	13500			
CCc1oc2ccccc2c1C(=O)c1cc(Br)c(O)c(Br)c1 [Benzbromarone]	1280 ± 211	4090 ± 2080	inhibited	time to steady-state relaxation of mouse tracheal rings (mouse tracheal rings; 1 μM): 40 to 60 min; EC50 (mouse tracheal rings; pre-contracted with EC75 carbachol, read-out: EC50 relaxation of mouse tracheal rings): 1280 nM; onset of action (mouse tracheal rings): 17 to 60 min
